In patent US8450053B2, “ZAP-70 as predictor and modulator of effector function of T cells” (University of Maryland, Baltimore, priority 2007, dated 2013):
“Also recorded” adds a separate entry of the source.

Columns and labels:
Assay type in all cases: cell-based, mouse
memory CD4 T cells = experiment: Inhibitor assay: OVA-specific memory CD4 T cells stimulated with OVA/APC, flow cytometry and intracellular cytokine staining
Method: (§1) Intracellular cytokine staining (ICS) analysis of signaling intermediates and cytokines was performed as previously described (Bingaman et al., 2005, supra; Ahmadzadeh and Farber, 2002, supra). Briefly, naive or memory CD4 T cells were cultured with APC and 800 ng/ml OVA peptide for time points of 0-48 hrs, and monensin (Golgistop™, BD Pharmingen) was added 6 hrs prior to harvesting. Cells were stained with antibodies for surface markers CD4, CD25, CD44, KJ1-26, fixed (Cytofix™ buffer, BD Pharmingen), permeabilized, and stained intracellularly with fluorochrome-conjugated antibodies to cytokines, signaling intermediates, and analyzed by flow cytometry.
(§2) Six-color flow cytometry was performed on BD LSR II flow cytometer (BD Biosciences) using FITC, PE, PERCP and PE-Cy7, allophycocyanin-Cy7, and allophycocyanin as fluorochromes (BD Biosciences, e-biosciences, Invitrogen/caltag). CD4 T cells stained with single color fluorochromes were used for compensation, background values were established with isotype controls, and data were analyzed using BD FACSDiva™ software (BD Biosciences). Fluorochrome-conjugated antibodies directed against CD4 (clone GK1.5), CD25 (PC61), CD69 (H1.2F3), CD62L (MEL-14), CD44 (IM7), CD3ε (145-2C11), IFN-γ (XMG1.2), phospho-ZAP-70 (17-P), phospho-PLC-γ (27/PLC), and phospho-Stat1 (clone 4a) were all purchased from BD-Pharmingen (San Diego, Calif.). PE- and APC-conjugated KJ1-26 specific for the DO11.10 TCR clonotype were purchased from CALTAG Laboratories (Burlingame, Calif.). PE- and FITC-conjugated ZAP-70 (1E7.2) was obtained from Invitrogen (Carlsbad, Calif.), and FITC-conjugated phospho-tyrosine (PT-66) from Sigma (St. Louis, Mo.), and phospho-p38 (28B10) and phospho-erk1/2 (E10) were purchased from Cell signaling technology, Inc. (Danvers, Mass.). For most analyses, a given marker was analyzed using several different fluorochromes to eliminate errors based on compensation.
(§3) Naive or memory CD4 T cells (1×10^6) were cultured with APC (3×10^6) in total volume of 1 ml of Clicks medium containing 800 ng/ml OVA peptide for time points of 0-24 hrs along with inhibitors cycloheximide (Sigma, 50 μg/ml) or piceatannol (Calbiochem, 12 μM of 3,4,3′,5′-tetrahydroxy-trans-stilbene). Solvent alone served as a vehicle control.

ZAP-70 = experiment: siRNA-mediated knockdown of ZAP-70 in OVA-specific memory CD4 T cells
Method: Cy3-labeled ZAP-70 specific siRNA Sense (5′→3′)/Cy3/GGCGGAUGGACUAAUUUACtt (SEQ ID NO: 10); Antisense (5′→3′) GUAAAUUAGUCCAUCCGCCtt (SEQ ID NO:11) or control GAPDH siRNA obtained from Ambion (Austin, Tex.) was delivered at a final concentration of 5 μM into 1.0×10^6 purified resting memory OVA-specific CD4 T cells using the mouse T cell nucleofector kit (Amaxa Inc., Gaithersburg, Md.) according to the manufacturers instructions and similar to the approach previously employed for siRNA transfections in mouse T cells (Sabbagh et al., 2006, Proc. Natl. Acad. Sci. USA 103:18703-18708). Following nucleofection, cell suspensions were cultured in media in 24 well plates with APC (2×10^6/well) and OVA-peptide (800 ng/ml), followed by incubation at 37° C. for 18 hrs. After 18 hrs, Golgistop (BD Pharmingen, USA) (0.66 μl/ml of culture) was added, cells were incubated for an additional 6 hrs, and subsequently staining for surface expression of CD4, KJ1-26 and CD25, and intracellular expression of ZAP-70 and IFN-γ as above.

[1] = test system: naive and memory CD4 T cells; experiment: Viability of naive and memory CD4 T cells cultured with cycloheximide; conditions: after 24 hrs in cycloheximide, average
Method: as §3

naive CD4 T cells = experiment: Inhibitor assay: OVA-specific naive CD4 T cells stimulated with OVA/APC, flow cytometry; conditions: cycloheximide 50 μg/ml
Method: as §1, §2, §3

[2] = memory CD4 T cells, OVA/APC 6 hrs, piceatannol 12 μM
[3] = antigen-stimulated memory CD4 T cells, 24 hrs, cycloheximide 50 μg/ml
[4] = memory CD4 T cells, +/-antigen, 6 hrs, cycloheximide 50 μg/ml
[5] = naive CD4 T cells, +/-antigen, 6 hrs
[6] = naive T cells, antigenic stimulation 24 hrs

With Oc1cc(O)cc(/C=C/c2ccc(O)c(O)c2)c1 [piceatannol, 3,4,3′,5′-tetrahydroxy-trans-stilbene] as the molecule, how does the “ZAP-70 expression, dose response” value (memory CD4 T cells; antigen-stimulated memory CD4 T cells, +/-OVA/APC, six hrs) read?
Its value is “reduced ZAP-70 expression in a dose-dependent fashion”.

And the ZAP-70 expression (memory CD4 T cells; [2])?
Its ZAP-70 expression is “specifically reduced”.

What about the “basal level of CD25” value (memory CD4 T cells; [2]) of the same molecule?
Its value is “without affecting”.

What about the “rapid IFN-γ production” value (memory CD4 T cells; [2]) of the same molecule?
Its value is “striking inhibition; also recorded: completely blocked”.

And the “total p-Tyr content” value (memory CD4 T cells; [2])?
The value was “without affecting”.

“ZAP-70 specific siRNA: Cy3-labeled ZAP-70 specific siRNA, sense GGCGGAUGGACUAAUUUACtt (SEQ ID NO: 10), antisense GUAAAUUAGUCCAUCCGCCtt (SEQ ID NO:11) (sense GGCGGAUGGACUAAUUUACTT; antisense GUAAAUUAGUCCAUCCGCCTT; Cy3 label, further chemistry not given here)” was tested. Which “early IFN-γ production” value (ZAP-70; memory CD4 T cells, ZAP-70 downmodulated using siRNA) did it give?
The value was “inhibited”.

What about the “reduction in the proportion of memory T cells producing IFN-γ” value (ZAP-70; siRNA 5 μM, OVA/APC 24 hrs, vs siRNA- and GAPDH siRNA transfectants) of the same molecule?
Its value is 50%.

And the “ZAP-70 expression (MFI)” value (ZAP-70; silenced (siRNA+) vs unsilenced (siRNA-) memory CD4 T cells, siRNA 5 μM, OVA/APC 24 hrs)?
Its value is “reduction in ZAP-70 expression”.

For C[C@@H]1C[C@@H]([C@H](O)CC2CC(=O)NC(=O)C2)C(=O)[C@@H](C)C1 [cycloheximide], which Viability [1] is on record?
Its Viability is 70%.

What about the CD25 up-regulation (memory CD4 T cells; [3]) of the same molecule?
The CD25 up-regulation was “inhibited”.

What about the “memory CD4 T cells maintaining high level of ZAP-70 expression” value (memory CD4 T cells; [3]) of the same molecule?
Its value is over 50%.

What about the intracellular tyrosine phosphorylation (memory CD4 T cells; [4]) of the same molecule?
Its intracellular tyrosine phosphorylation is “did not affect”.

And the “resting state level of ZAP-70” value (memory CD4 T cells; [4])?
The value was “did not affect”.

What about the p-Tyr levels (memory CD4 T cells; memory T cells, 24 hrs, cycloheximide 50 μg/ml) of the same molecule?
The p-Tyr levels was “did not affect”.

What about the “increases in total intracellular p-Tyr levels” value (naive CD4 T cells; activated naive CD4 T cells, 24 hrs) of the same molecule?
The value was “significantly inhibited”.

And the intracellular tyrosine phosphorylation (naive CD4 T cells; [5])?
Its intracellular tyrosine phosphorylation is “did not affect”.

What about the “resting state level of ZAP-70” value (naive CD4 T cells; [5]) of the same molecule?
The value was “did not affect”.

And the “up-regulation of CD25 expression” value (naive CD4 T cells; [6])?
Its value is “completely inhibited”.

And the “up-regulation of ZAP-70 expression” value (naive CD4 T cells; [6])?
Its value is “completely inhibited”.
